{"source": "patent US8377691B2", "about": "(priority 2006, dated 2013)", "key": {"[1]": {"molecular_target": "5HT3a cation channel (Homo sapiens, UniProt P46098)", "sequence (P46098 24-478)": "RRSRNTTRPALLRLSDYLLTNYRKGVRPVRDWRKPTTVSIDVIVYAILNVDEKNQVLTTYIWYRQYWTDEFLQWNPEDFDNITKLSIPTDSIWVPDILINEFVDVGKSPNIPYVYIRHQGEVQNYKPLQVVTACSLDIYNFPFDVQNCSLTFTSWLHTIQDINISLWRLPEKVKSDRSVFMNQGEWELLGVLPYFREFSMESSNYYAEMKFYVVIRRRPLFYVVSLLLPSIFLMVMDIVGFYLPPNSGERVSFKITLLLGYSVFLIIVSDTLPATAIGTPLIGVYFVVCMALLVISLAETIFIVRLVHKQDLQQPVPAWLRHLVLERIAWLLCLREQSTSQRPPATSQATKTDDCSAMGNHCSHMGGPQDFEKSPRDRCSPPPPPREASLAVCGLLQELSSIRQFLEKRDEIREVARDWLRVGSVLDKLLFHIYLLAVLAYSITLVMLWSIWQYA", "format": "biochemical"}, "[2]": {"molecular_target": "T1, Shaker(Δ6-46)T449V (Drosophila melanogaster, UniProt P08510, DEL6-46/T449V)", "T1 construct": "made in house; host or cells: 293 / HEK-293 cells co-transfected with MLV Gag", "T1 sequence (P08510 with tags, fused parts or gaps DEL6-46/T449V)": "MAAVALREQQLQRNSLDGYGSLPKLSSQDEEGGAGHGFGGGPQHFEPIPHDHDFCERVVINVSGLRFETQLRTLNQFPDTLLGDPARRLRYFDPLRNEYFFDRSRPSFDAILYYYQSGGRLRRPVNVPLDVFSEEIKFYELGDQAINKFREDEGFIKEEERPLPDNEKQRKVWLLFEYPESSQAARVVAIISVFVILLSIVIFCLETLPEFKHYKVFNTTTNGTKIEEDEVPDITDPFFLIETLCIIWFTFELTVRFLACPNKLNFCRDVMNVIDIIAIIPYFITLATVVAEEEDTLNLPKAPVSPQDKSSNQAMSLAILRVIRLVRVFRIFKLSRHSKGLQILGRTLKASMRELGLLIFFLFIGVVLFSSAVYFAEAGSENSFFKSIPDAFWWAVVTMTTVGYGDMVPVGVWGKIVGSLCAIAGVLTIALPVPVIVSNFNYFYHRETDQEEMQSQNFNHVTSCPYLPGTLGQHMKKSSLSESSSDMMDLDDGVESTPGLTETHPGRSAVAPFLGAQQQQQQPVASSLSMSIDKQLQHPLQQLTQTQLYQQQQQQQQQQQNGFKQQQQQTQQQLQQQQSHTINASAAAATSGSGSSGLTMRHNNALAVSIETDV", "format": "biochemical", "details": "for Shaker activity: iberiotoxin (10 uM), margatoxin (10 uM); for lipoparticle Shaker activity: pre-treated with 10 nM toxin, duplicate experiments"}, "[3]": {"format": "biochemical", "details": "for response to 30 mM K2SO4 after prior disruption of the lipoparticle structure: gramicidin (1 uM) or melittin (5 uM)"}, "[4]": {"molecular_target": "T2, human KCNQ2/3 channel (Homo sapiens, UniProt O43525+O43526)", "T2 construct": "made in house", "format": "biochemical"}, "[5]": {"molecular_target": "T3, Shaker T449K mutant (Drosophila melanogaster, UniProt P08510, T449K)", "T3 construct": "made in house", "T3 sequence (P08510 whole entry T449K)": "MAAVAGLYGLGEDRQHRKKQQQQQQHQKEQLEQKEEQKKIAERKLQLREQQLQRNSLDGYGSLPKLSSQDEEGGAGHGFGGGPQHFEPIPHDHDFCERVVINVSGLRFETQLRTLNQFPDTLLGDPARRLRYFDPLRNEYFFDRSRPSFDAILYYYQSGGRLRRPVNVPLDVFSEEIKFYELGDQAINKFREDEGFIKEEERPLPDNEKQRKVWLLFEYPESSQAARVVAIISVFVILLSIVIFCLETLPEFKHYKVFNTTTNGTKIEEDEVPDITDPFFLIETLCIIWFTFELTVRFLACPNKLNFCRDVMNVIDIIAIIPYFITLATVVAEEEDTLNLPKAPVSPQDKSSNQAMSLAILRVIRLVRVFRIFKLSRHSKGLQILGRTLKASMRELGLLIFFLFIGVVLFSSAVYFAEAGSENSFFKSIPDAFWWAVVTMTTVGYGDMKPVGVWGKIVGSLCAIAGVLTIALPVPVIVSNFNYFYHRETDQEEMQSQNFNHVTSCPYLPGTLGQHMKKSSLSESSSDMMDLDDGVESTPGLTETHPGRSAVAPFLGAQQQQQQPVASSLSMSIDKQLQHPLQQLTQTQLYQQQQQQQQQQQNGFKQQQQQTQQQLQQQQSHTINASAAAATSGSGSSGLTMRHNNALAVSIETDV", "format": "biochemical", "details": "10 nM CHTX pre-treatment"}, "[6]": {"molecular_target": "Shaker (Drosophila melanogaster, UniProt P08510)", "sequence (P08510 whole entry)": "as the sequence (P08510 whole entry T449K) above, with K449T counted along it", "details": "cited from earlier work"}, "[7]": {"molecular_target": "A/M2/HK156/94 (Influenza A virus, UniProt O70632)", "sequence (O70632 whole entry, looked up)": "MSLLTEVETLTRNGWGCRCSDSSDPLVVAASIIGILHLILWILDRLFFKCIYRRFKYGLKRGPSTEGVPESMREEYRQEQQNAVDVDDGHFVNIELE", "test": "biochemical", "format": "biochemical", "details": "for H+ transport across VLP membranes (fluorescence): pH 4.5"}, "[8]": {"molecular_target": "A/M2 Udorn72 (Influenza A virus, UniProt P0DOF5)", "sequence (P0DOF5 whole entry, looked up)": "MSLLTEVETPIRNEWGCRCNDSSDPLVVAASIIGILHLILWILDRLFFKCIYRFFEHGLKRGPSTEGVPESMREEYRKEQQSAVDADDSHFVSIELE", "format": "biochemical", "details": "pH 4.5"}, "[9]": {"system": "M2", "details": "cited from earlier work"}, "[10]": {"molecular_target": "M2 viral ion channel, Influenza A (Udorn/72) virions (Influenza A virus, UniProt P0DOF5)", "sequence (P0DOF5 whole entry, looked up)": "as above", "format": "biochemical"}}, "note": "“Also recorded” adds a separate entry of the source. Like-named read-outs stand apart in the source and are kept apart here."}
{"compound": "NCCc1c[nH]c2ccc(O)cc12", "note": "[serotonin]", "values": [{"measurement": "dependence of the fluorescent signal on the ligand", "setting": "[1]", "result": "dependent upon the presence; also recorded: omission of the ion channel ligand, serotonin, from the assay mix resulted in no change in fluorescence intensity"}]}
{"compound": "iberiotoxin (QFTDVDCSVSKECWSVCKDLFGVDRGKCMGKKCRCYQ; UniProt P24663 1-37, looked up)", "values": [{"measurement": "Shaker activity", "setting": "[2]", "result": "did not inhibit Shaker activity"}, {"measurement": "lipoparticle Shaker activity", "setting": "[2]; 30 mM K2SO4", "result": "do not influence"}]}
{"compound": "gramicidin", "values": [{"measurement": "response to 30 mM K2SO4 after prior disruption of the lipoparticle structure", "setting": "[3]", "result": "eliminated the response"}]}
{"compound": "COc1cc2c3cc1Oc1cc(ccc1O)C[C@@H]1c4c(cc(OC)c(O)c4Oc4ccc(cc4)C[C@@H]3N(C)CC2)CC[N+]1(C)C", "note": "[tubocurarine]", "values": [{"measurement": "fluorescent signal on Na+ addition", "setting": "[1]", "result": "capable of inhibiting the fluorescent signal; also recorded: inhibition"}]}
{"compound": "CC(C)[C@@H]1NC(=O)[C@H](C)OC(=O)[C@@H](C(C)C)NC(=O)[C@@H](C(C)C)OC(=O)[C@H](C(C)C)NC(=O)[C@H](C)OC(=O)[C@@H](C(C)C)NC(=O)[C@@H](C(C)C)OC(=O)[C@H](C(C)C)NC(=O)[C@H](C)OC(=O)[C@@H](C(C)C)NC(=O)[C@@H](C(C)C)OC1=O", "note": "[Valinomycin, valinomycin]", "values": [{"measurement": "fluorescent signal on K+ exposure (normalized to baseline)", "setting": "[3]; valinomycin-treated null-lipoparticles, twelve replicates, microplate, mean+/−standard deviation, untreated 1.023+/−0.009", "result": "1.347+/−0.036"}]}
{"compound": "[Ba+2].[Cl-].[Cl-]", "note": "[BaCl2]", "values": [{"measurement": "fluorescent signal on K+ addition", "setting": "[4]; 20 mM BaCl2", "result": "inhibition"}, {"measurement": "fluorescent signal on K+ addition", "setting": "[4]; 120 mM BaCl2 pre-treatment", "result": "capable of inhibiting the fluorescent signal"}]}
{"compound": "charybdotoxin [CHTX]", "values": [{"measurement": "Shaker conductance of K+ across lipoparticle membranes", "setting": "[2]; 10 nM CHTX pre-incubation, 30 mM K2SO4", "result": "completely inhibited"}, {"measurement": "inhibition of the fluorescent signal over a concentration range", "setting": "[2]; CHTX 100 pM to 10 nM, 10 ug Shaker plasmid", "result": "concentration-dependent inhibition"}, {"measurement": "low concentration at which inhibition of membrane depolarization was evident", "setting": "[2]; lipoparticles produced using 10 ug Shaker plasmid, 30 mM K2SO4", "result": 0.1, "unit": "nM"}, {"measurement": "fluorescent signal on K+ addition", "setting": "[5]", "result": "capable of inhibiting the fluorescent signal; also recorded: inhibition"}, {"measurement": "effect of channel inhibitor on valinomycin-mediated K+ movement (specificity control)", "setting": "[3]; null-lipoparticles pre-treated with 1 uM valinomycin, CHTX up to 10 nM, tubocurarine", "result": "did not influence; also recorded: had no effect"}, {"measurement": "CHTX inhibition of Shaker in cells reported in the literature", "setting": "[6]", "result": "~3.6", "unit": "nM"}]}
{"compound": "CC[C@H](C)[C@H](NC(=O)CN)C(=O)NCC(=O)N[C@@H](C)C(=O)N[C@H](C(=O)N[C@@H](CC(C)C)C(=O)N[C@@H](CCCCN)C(=O)N[C@H](C(=O)N[C@@H](CC(C)C)C(=O)N[C@H](C(=O)N[C@H](C(=O)NCC(=O)N[C@@H](CC(C)C)C(=O)N1CCC[C@H]1C(=O)N[C@@H](C)C(=O)N[C@@H](CC(C)C)C(=O)N[C@H](C(=O)N[C@@H](CO)C(=O)N[C@@H](Cc1c[nH]c2ccccc12)C(=O)N[C@H](C(=O)N[C@@H](CCCCN)C(=O)N[C@@H](CCCNC(=N)N)C(=O)N[C@@H](CCCCN)C(=O)N[C@@H](CCCNC(=N)N)C(=O)N[C@@H](CCC(N)=O)C(=O)N[C@@H](CCC(N)=O)C(N)=O)[C@@H](C)CC)[C@@H](C)CC)[C@@H](C)O)[C@@H](C)O)C(C)C)C(C)C", "note": "[melittin]", "values": [{"measurement": "response to 30 mM K2SO4 after prior disruption of the lipoparticle structure", "setting": "[3]", "result": "eliminated the response"}]}
{"compound": "CC(N)C12CC3CC(CC(C3)C1)C2", "note": "(stereo not drawn) [rimantadine]", "values": [{"measurement": "Hillslope of inhibition curve", "setting": "[7]", "result": "−1.1"}, {"measurement": "IC50", "setting": "[7]", "result": 180, "unit": "nM"}, {"measurement": "mean change in fluorescence resulting from MES addition", "setting": "[7]", "result": "−432±167"}, {"measurement": "H+ transport across VLP membranes (fluorescence)", "setting": "[7]", "result": "abrogated the subsequent movement of H^+"}, {"measurement": "H+ transport fluorescence signal", "setting": "[8]", "result": "inhibited the fluorescent response; also recorded: abrogated the subsequent movement of H^+; also recorded: completely abrogated"}, {"measurement": "potency relative to amantadine reported in the literature", "setting": "[9]; more potent than amantadine", "result": "approximately 10 times"}]}
{"compound": "NC12CC3CC(CC(C3)C1)C2", "note": "[amantadine]", "values": [{"measurement": "Hillslope of inhibition curve", "setting": "[7]", "result": "−0.71"}, {"measurement": "IC50", "setting": "[7]", "result": 980, "unit": "nM"}, {"measurement": "mean change in fluorescence resulting from MES addition", "setting": "[7]", "result": "314±206"}, {"measurement": "H+ transport across VLP membranes (fluorescence)", "setting": "[7]", "result": "abrogated the subsequent movement of H^+; also recorded: in the absence, but not in the presence of amantadine"}, {"measurement": "H+ transport fluorescence signal", "setting": "[8]", "result": "inhibited the fluorescent response; also recorded: abrogated the subsequent movement of H^+; also recorded: completely abrogated"}, {"measurement": "fluorescent signal (membrane potential response) on low pH challenge", "setting": "[10]", "result": "attenuated the fluorescent signal in a dose-dependent fashion; also recorded: inhibited"}, {"measurement": "IC50", "setting": "[9]; other measures of M2 function, such as plaque assay, read-out: IC50 reported in the literature", "result": "1000 to 10000", "unit": "nM"}]}
{"compound": "margatoxin (TIINVKCTSPKQCLPPCKAQFGQSAGAKCMNGKCKCYPH; UniProt P40755 1-39, looked up)", "values": [{"measurement": "Shaker activity", "setting": "[2]", "result": "did not inhibit Shaker activity"}, {"measurement": "lipoparticle Shaker activity", "setting": "[2]; 30 mM K2SO4", "result": "do not influence"}]}
